Experimental data: article PMC7801313, “Effect of lurbinectedin on the QTc interval in patients with advanced solid tumors: an exposure–response analysis” (Cancer Chemotherapy and Pharmacology, 2020)

Tests used:
[1] = system: patients with advanced solid tumors; assay: QT evaluation study, by time point ECG analysis; type: in vivo, human; conditions: before vs after prophylactic palonosetron 0.25 mg i.v., cycle 1 day 1
Experimental: This was a QT evaluation study (EudraCT No. 2015-000206-18; ClinicalTrials.gov: NCT02451007) performed at a subset of sites participating in a multicenter, open-label, exploratory, phase II basket clinical trial (EudraCT No: 2014-003773-42; ClinicaTrials.gov: NCT02454972) conducted in patients with selected advanced solid tumors. The schedule used in this QT evaluation study was that evaluated in the basket trial: lurbinectedin 3.2 mg/m^2 given as a 1-h i.v. infusion q3wk.
A screening ECG was collected between day -10 and day -2 before the first lurbinectedin infusion (day 1 of cycle 1) and transmitted to the central ECG laboratory to confirm the patient’s eligibility.
On day 1 of cycle 1, two baseline triplicate ECGs (three 10-s digital ECGs in close succession) were collected: one before administration of prophylactic medication or pre-dose 1, and the other after antiemetic prophylactic medication (palonosetron 0.25 mg i.v.) and before the start of the lurbinectedin infusion or pre-dose 2 (also on cycle 2).
In cycle 1 and cycle 2, the following triplicate ECGs were collected 5–10 min before their time-matched PK time points: 5 min before end of the lurbinectedin infusion (EOI), 30 min, 1, 3, 24, 72 (only on cycle 1), and 168 h after EOI.
A 12-lead automated digital ECG recorder [Mortara Instrument (Milwaukee, WI, USA) ELI-150 ECG 12-lead digital recorder] was provided by a third-party central ECG laboratory (eResearchTechnology, Inc., Philadelphia, PA, USA). Analysis and reporting of ECG data were performed by a limited number of skilled readers who were blinded to treatment time point. ECG review of a particular patient was performed by a single reader. Interval duration measurements were collected using computer-assisted caliper placements on three consecutive beats. A cardiologist then verified the interval durations and performed the morphology analysis, noting any T-U wave complex compatible with an effect on cardiac repolarization. The ECG analysis was conducted in Lead II or in Lead V5 if Lead II was not analyzable. If Lead V5 was not analyzable, then Lead V2 was used, and followed by the most appropriate lead if necessary. The mean of triplicate ECG measures at each time point for each patient was used for analyses.
Fridericia’s formula [6] is currently considered the most accurate method for correcting the effect of HR on QT interval [7], and was used as the main method for HR correction for QT (QTcF). Nevertheless, graphical inspection of QTcF and QT corrected by Bazett’s formula (QTcB) versus RR interval plots and statistical comparison of resulting squared linear regression slopes (R^2) was performed.
The primary endpoint was the change in QTc corrected by the Fridericia’s formula (ΔQTcF) between each scheduled post-baseline ECG time point and baseline at cycle 1. A patient was considered evaluable for the primary endpoint if he/she had baseline and one or more post-baseline ECG assessments.
Secondary endpoints were the ΔQTcF/lurbinectedin plasma concentration relationship, and change in other ECG parameters (i.e., HR, QRS, and PR).
The primary comparison was ΔQTcF at each ECG time point. A non-inferiority criterion of 20 ms was used to establish the absence of post-baseline QTc prolongation when compared to baseline. An analysis of variance model with mixed effects was fitted, with ΔQTc data as the dependent variable and ECG time point as the fixed effects, and patient as random effect.
Using the estimated least square means (LSM) and intra-patient standard deviation (Std) obtained from this model, a two-sided 90% confidence interval (CI) was calculated for each LSM ΔQTc. Non-inferiority was to be concluded if the upper bound (UB) of the one-sided 95% CI fell below 20 ms at each ECG time point.

[2] = system: patients; conditions: cited from earlier work

O=C1c2cccc3c2[C@H](CCC3)CN1[C@@H]1CN2CCC1CC2 [prophylactic medication, palonosetron, reference compound]
difference between mean pre-dose 1 and mean pre-dose 2 QTcF [1]: 1.3 ms

COc1cc2c(cc1O)CCN[C@]21CS[C@@H]2c3c(OC(C)=O)c(C)c4c(c3[C@H](COC1=O)N1[C@@H]2[C@H]2c3c(cc(C)c(OC)c3O)C[C@@H]([C@@H]1O)N2C)OCO4 [trabectedin]
heart rate change ([2]; 3-h i.v. infusion, largest increases at 4 h after start of infusion): heart rate increased slightly | cardiac risk profile [2]: low cardiac risk profile
